Assay results reported in PubChem BioAssay (NCI).
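Five concentrations, 48 hours, 96-well plates. At the TGI there is no net growth.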

Assays:
Experiment in all cases: growth of human tumour cells (NCI), 48 h
[1] = test system: LOX IMVI melanoma
[2] = test system: K-562 leukemia
[3] = test system: LXFL 529 NSCLC
[4] = test system: ACHN renal
[5] = test system: XF 498 CNS
[6] = test system: SF-295 CNS
[7] = test system: DMS 273 small cell lung
[8] = test system: UACC-62 melanoma
[9] = test system: SNB-19 CNS
[10] = test system: SF-539 CNS
[11] = test system: HT29 colon
[12] = test system: U251 CNS
[13] = test system: SN12C renal
[14] = test system: KM12 colon
[15] = test system: KM20L2 colon
[16] = test system: SW-620 colon
[17] = test system: SNB-78 CNS
[18] = test system: HCT-116 colon
[19] = test system: DMS 114 small cell lung
[20] = test system: HCT-15 colon
[21] = test system: HOP-92 NSCLC
[22] = test system: A498 renal
[23] = test system: EKVX NSCLC
[24] = test system: OVCAR-8 ovarian
[25] = test system: NCI-H226 lung
[26] = test system: CAKI-1 renal
[27] = test system: 786-0 renal
[28] = test system: COLO 205 colon
[29] = test system: M14 melanoma
[30] = test system: HCC-2998 colon
[31] = test system: UO-31 renal
[32] = test system: HOP-18 NSCLC
[33] = test system: SK-OV-3 ovarian
[34] = test system: UACC-257 melanoma
[35] = test system: MOLT-4 leukemia
[36] = test system: RPMI-8226 leukemia
[37] = test system: SNB-75 CNS
[38] = test system: DLD-1 colon
[39] = test system: SR leukemia
[40] = test system: SK-MEL-28 melanoma
[41] = test system: OVCAR-5 ovarian
[42] = test system: NCI-H23 lung
[43] = test system: A549 NSCLC
[44] = test system: HL-60(TB) leukemia
[45] = test system: SF-268 CNS
[46] = test system: M19-MEL melanoma
[47] = test system: OVCAR-3 ovarian
[48] = test system: MALME-3M melanoma
[49] = test system: IGROV1 ovarian
[50] = test system: OVCAR-4 ovarian
[51] = test system: CCRF-CEM leukemia
[52] = test system: NCI-H522 lung
[53] = test system: SK-MEL-5 melanoma
[54] = test system: HOP-62 NSCLC
[55] = test system: NCI-H460 lung
[56] = test system: TK-10 renal
[57] = test system: RXF 393 renal
[58] = test system: SK-MEL-2 melanoma

Measured: TGI

COC(=O)C(=O)C(C#N)c1cccc2ccccc12 (stereo unspecified)
99.7 µM: [14]
not listed: [55] | [56] | [57] | [58]
> 100 µM: all other assays above

O=C(c1ccccc1)c1nnn(Cc2cccc(Cl)c2)c1C(=O)c1ccccc1
38.8 µM: [28]
not listed: [10] | [13] | [22]
> 100 µM: all other assays above

COc1ccc(CN(O)C2C(CO)OC(n3cc(I)c(=O)[nH]c3=O)C2O)cc1 (stereo unspecified)
not listed: [25]
> 100 µM: all other assays above
